From patent US20030007941A1, “Method of treating hair loss using thyromimetic compounds” (priority 2001, published 2003)

Assays:
[1] = system: mice and rats; details: topical; cited from earlier work
[2] = system: AGA mouse; details: topical, model for androgen dependent hair loss; cited from earlier work
[3] = system: C3H/HeN mice; assay: Telogen Conversion Assay (topical hair growth); format: in vivo; details: for Hair Growth at LDO (% Animals): animals with hair growth score of 1 or greater; for Hair Growth in 50% of Animals: day when 50% or greater had score of 1 or greater
Description: The Telogen Conversion Assay measures the potential of a compound (hereinafter referred to as the “test compound”) to convert mice in the resting stage of the hair growth cycle (“telogen”) to the growth stage of the hair growth cycle (“anagen”). Without intending to be limited by theory, there are three principal phases of the hair growth cycle: anagen, catagen and telogen. The telogen period in C3H/HeN mice lasts from approximately 40 days of age until about 75 days of age, when hair growth is synchronized. It is believed that after 75 days of age, hair growth is no longer synchronized. For example, about 40 day-old mice with dark fur (brown or black) may be used in hair growth experiments; melanogenesis occurs in these animals along with hair (fur) growth and the topical application of hair growth inducers may be evaluated in these animals.
The Telogen Conversion Assay described below is used to screen test compounds for potential hair growth by measuring melanogenesis:
Objectives: To evaluate and compare the effect of test compounds applied topically on C3H/HeN mice for hair growth.
Animals: Female C3H/HeN mice, six and a half weeks of age.
Route and Duration of Treatment: Topical dosing with test compounds on mice is scheduled once or twice daily for five (5) consecutive days for one week to four weeks. Topical dosing begins on Day 0 by applying test compound or vehicle in volumes of 20 μl which keeps the solubilized test compound to a prescribed area of approximately one (1) square centimeter (1 cm^2) in the center of the clipped lower back of each mouse.
Study Design: Only mice with pink skin or in the telogen phase of the hair growth cycle are selected for inclusion in the study. On Friday, before the experiment starts, the mice are weighed and then anesthetized with isoflurane in a mouse chamber. The hair over the lower dorsal area is clipped with a Wahl clipper using a #40 blade. Care is taken to avoid abrading the skin surface. On the Monday (Day 0) following hair clipping, the mice are again anesthetized with isoflurane and photographed with a digital camera. After digital photographs are taken, the mice receive 20 μl of the respective test compounds applied with an automated pipette to the clipped area between the hind legs. The test compound for each treatment group is evenly spread with the pipette tip to an area approximately 1 square centimeter (1 cm^2), and applied to the same site on subsequent dosing days. All topical treatments are administered as described in the Route and Duration of Treatment Section.
Observations of the test sites are made three (3) times a week on Monday, Wednesday, and Friday, with observations beginning immediately after the first week of treatment and looking for changes in skin pigment, hair growth, and signs of irritation such as scaling, peeling, scabbing and erythema. Digital photographs are taken on Days 0, 10, 15, 31 and 35 (end of the study) for the dosing groups. Body weights of mice are taken on the first and last days of observation for each test group.
The scoring system for hair growth is described below:
0=No hair growth/pigment change (pink skin);
1=Gray/dark skin color (no visible hair growth);
2=Sparse/diffuse terminal hair growth;
3=dense, normal hair growth.
ph 2=peripheral hair growth with a score of 2
ph 3=peripheral hair growth with a score of 3
ldsh=long, diffuse/scattered hair growth in the dosing site
Scaling, peeling, scabbing, or erythema are scored as present (+) and absent (−). Any other local (e.g. test compound precipitation) or systemic abnormalities and aberrant hair growth are described on raw data scoring sheet.
Table 1 is a summary table of the results of the evaluation of five different test compounds in the Telogen Conversion Assay described above. Animals were observed and scored for hair growth using the scoring system for hair growth described above.

[4] = Experiment 1, 0.001% topical, 1 wk, LDO day 30
[5] = Experiment 1, 0.01% topical, 1 wk, LDO day 30
[6] = Experiment 1, 0.1% topical, 1 wk, LDO day 30
[7] = Experiment 1, 0.3% topical, 1 wk, LDO day 30
[8] = Experiment 2, 0.001% topical, 1 wk, LDO day 35
[9] = Experiment 2, 0.01% topical, 1 wk, LDO day 35
[10] = Experiment 2, 0.1% topical, 1 wk, LDO day 35
[11] = Experiment 2, 0.3% topical, 1 wk, LDO day 35
[12] = Experiment 3, 0.1% topical, 1 wk, LDO day 35
[13] = Experiment 3, 0.1% topical, 2 wks, LDO day 35

N[C@@H](Cc1cc(I)c(Oc2ccc(O)c(I)c2)c(I)c1)C(=O)O [T3, 3,5,3′-triiodo-L-thyronine]
effect on epidermal proliferation, dermal thickening and hair growth [1]: stimulates epidermal proloferation, dermal thickening and hair growth
effect on testosterone induced alopecia [2]: inhibitory effect

O=C(NC1CCCCC1)c1cc(Oc2c(Cl)cc(-n3ncc(=O)[nH]c3=O)cc2Cl)ccc1O [Cpd #1, N-Cyclohexyl-5-[2,6-dichloro-4-(3,5-dioxo-4,5-dihydro-3H-[1,2,4]triazin-2-yl)-phenoxy]-2-hydroxy-benzamide]
Hair Growth at LDO (% Animals) [3, 4]: 22%
Hair Growth in 50% of Animals [3, 4]: >30 days
Hair Growth at LDO (% Animals) [3, 5]: 75%
Hair Growth in 50% of Animals [3, 5]: 14 days
Hair Growth at LDO (% Animals) [3, 6]: 100%
Hair Growth in 50% of Animals [3, 6]: 7 days
Hair Growth at LDO (% Animals) [3, 7]: 100%
Hair Growth in 50% of Animals [3, 7]: 9 days
Hair Growth at LDO (% Animals) [3, 8]: 50%
Hair Growth in 50% of Animals [3, 8]: 18 days
Hair Growth at LDO (% Animals) [3, 9]: 100%
Hair Growth in 50% of Animals [3, 9]: 14 days
Hair Growth at LDO (% Animals) [3, 10]: 100%
Hair Growth in 50% of Animals [3, 10]: 7 days
Hair Growth at LDO (% Animals) [3, 11]: 100%
Hair Growth in 50% of Animals [3, 11]: 9 days
Hair Growth at LDO (% Animals) [3, 12]: 100%
Hair Growth in 50% of Animals [3, 12]: 7 days
Hair Growth at LDO (% Animals) [3, 13]: 100%
Hair Growth in 50% of Animals [3, 13]: 7 days

O=C(c1cc(Oc2c(Cl)cc(-n3ncc(=O)[nH]c3=O)cc2Cl)ccc1O)N1CCc2ccccc2C1 [Cpd #2, 2-{3,5-Dichloro-4-[3-(3,4-dihydro-1H-isoquinoline-2-carbonyl)-4-hydroxy-phenoxy]-phenyl}-2H-[1,2,4]triazine-3,5-dione]
Hair Growth at LDO (% Animals) [3, 13]: 100%
Hair Growth in 50% of Animals [3, 13]: 11 days

Cc1cc(-n2ncc(=O)[nH]c2=O)cc(C)c1Oc1ccc(O)c(Cc2ccc(F)cc2)c1 [Cpd #4, 2-{4-[3-(4-Fluoro-benzyl)-4-hydroxy-phenoxy]-3,5-dimethyl-phenyl}-2H-[1,2,4]triazine-3,5-dione]
Hair Growth at LDO (% Animals) [3, 13]: 100%
Hair Growth in 50% of Animals [3, 13]: 9 days

Cc1cc(NC(=O)C(=O)O)cc(C)c1Oc1ccc(O)c2c1CCC2 [Cpd #3, N-[4-(7-hydroxy-indan-4-yloxy)-3,5-dimethyl-phenyl]-oxamic acid]
Hair Growth at LDO (% Animals) [3, 13]: 20%
Hair Growth in 50% of Animals [3, 13]: >35 days

O=C(c1ccc(F)cc1)c1cc(Oc2c(Cl)cc(-n3ncc(=O)[nH]c3=O)cc2Cl)ccc1O [Cpd #5, 2-{3,5-Dichloro-4-[3-(4-fluoro-benzoyl)-4-hydroxy-phenoxy]-phenyl}-2H-[1,2,4]triazine-3,5-dione]
Hair Growth at LDO (% Animals) [3, 13]: 100%
Hair Growth in 50% of Animals [3, 13]: 9 days
